# Legend:
# BPLE cells = experiment: in vitro growth inhibition by estrogen antagonist, BPLE cells; assay type: cell-based, human; conditions: data not shown
# Excerpt: (§1) Expression of CK18 and BER-Ep4 both confirm the adenocarcinoma features and exclude a squamous tumor. E-cadherin excludes a mesenchymal tumor. BPLER xenografts express progesterone receptor, which is consistent with the notion that BPLER xenografts are hormone-responsive. This was confirmed by experiments in which estrogen-progesterone treatment of mice increased subject tumor size approximately two-fold compared to untreated mice. […] Similar tumor xenografts from cells cultured in the MEGM media was negative for progesterone receptor expression and the in vitro growth inhibition of the cells with ICI 182,780 was less than 20% (data not shown).
# BPEC cells = experiment: in vitro growth inhibition by estrogen antagonist, BPEC cells; assay type: cell-based, human; conditions: data not shown
# Excerpt: as §1
# [1] = system: cells cultured in the MEGM media; experiment: in vitro growth inhibition by estrogen antagonist, cells cultured in the MEGM media; assay type: cell-based, human; conditions: data not shown
# Excerpt: as §1
# BPE cells = experiment: in vitro growth inhibition by estrogen antagonist, BPE cells; assay type: cell-based, human; conditions: data not shown
# Excerpt: as §1
# BPLER xenograft tumors = experiment: hormone responsiveness of BPLER xenograft tumors in mice; assay type: in vivo; conditions: estrogen treated animals
# Excerpt: In one respect, the histology of tumors arising from BPLER is very similar, if not identical to human ductal breast carcinoma. There is prominent luminal marker CK18 expression in BPLER cells and tumors. There is also prominent expression of E-cadherin, a marker indicating polarization of cells. Morphology wise, BPLER xenografts form glandular structures similar to those seen in human tumors. BPLER xenografts into mammary fat pads are invasive into adjacent skeletal muscle, and cause a desmoplastic reaction. BPLER xenografts also express progesterone receptors based on immunohistological staining of xenograft tumor samples. In addition, BPLER tumor sizes respond to estrogen treatment, in that xenograft tumors weighed about 70-100% more in estrogen treated animals than in control animals. BPLER tumors spread within the breast tissue of mice, and the multifocal growth is consistent with lymphovascular invasion and spread of tumors. […]
# Analysis of tumorigenicity and metastasis: Single-cell suspensions were prepared in a WIT:Matrigel (1:1) mixture and injected in 25 μL (orthotopic) and 100 μl (subcutaneous) volumes. […] Metastasis to lungs and other tissues was analyzed initially under a dissecting microscope (Leica) in fresh tissues, followed by microscopic examination of hematoxylin-eosin and immunostained sections of formalin-fixed and paraffin-embedded tissues. […]
compound,measurement,setting,value
"C[C@]12CC[C@@H]3c4ccc(O)cc4C[C@@H](CCCCCCCCC[S+]([O-])CCCC(F)(F)C(F)(F)F)[C@H]3[C@@H]1CC[C@@H]2O (some centres unmarked) [ICI 182,780]",growth inhibition,BPLE cells,> 80%
same,growth inhibition,BPEC cells,> 80%
same,in vitro growth inhibition,[1],less than 20%
same,growth inhibition,BPE cells,> 80%
estrogen,xenograft tumor weight increase in treated animals vs control animals,BPLER xenograft tumors,70-100%

# Source: patent publication US11530385B2, “Hormone responsive tissue culture system and uses thereof” (Whitehead Institute for Biomedical Research, priority 2007, dated 2022)
